Tests used:
[1] = target: Alpha-ketoglutarate-dependent dioxygenase FTO (Homo sapiens, UniProt Q9C0B1); assay: Inhibition of N-terminal truncated FTO demethylation (unknown origin) using 5'-ATTGCCATTCTCGATAGG(dm6A)TCCGGTCAAACCTAGACGAA-3' ssDNA template incubated for 2 hrs by PAGE-based assay
[2] = tested on: MOLM-13; assay: Anti-proliferative activity against human MOLM-13 cells assessed as inhibition of cell viability incubated for 72 hrs by CCK8 assay; type: functional, cell-based; conditions: MOLM-13, 72 h
[3] = tested on: NB-4; assay: Anti-proliferative activity against human NB4 cells assessed as inhibition of cell viability incubated for 72 hrs by CCK8 assay; type: functional, cell-based; conditions: NB-4, 72 h

Sequence of Alpha-ketoglutarate-dependent dioxygenase FTO (Q9C0B1 whole entry, the tested form may be a part): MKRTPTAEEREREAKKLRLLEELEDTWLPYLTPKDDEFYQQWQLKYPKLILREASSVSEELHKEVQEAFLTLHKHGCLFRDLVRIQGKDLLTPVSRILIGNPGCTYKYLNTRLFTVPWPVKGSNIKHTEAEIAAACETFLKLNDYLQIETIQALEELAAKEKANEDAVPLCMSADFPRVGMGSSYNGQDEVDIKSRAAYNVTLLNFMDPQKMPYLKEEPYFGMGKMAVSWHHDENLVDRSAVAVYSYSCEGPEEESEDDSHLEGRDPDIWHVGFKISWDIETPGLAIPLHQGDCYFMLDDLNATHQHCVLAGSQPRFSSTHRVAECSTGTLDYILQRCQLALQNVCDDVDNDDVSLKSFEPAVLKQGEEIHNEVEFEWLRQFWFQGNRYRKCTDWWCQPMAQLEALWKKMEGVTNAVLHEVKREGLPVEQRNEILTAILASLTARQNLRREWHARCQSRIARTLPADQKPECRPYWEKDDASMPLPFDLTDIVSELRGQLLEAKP

Structure (SMILES)	IC50 [1]	IC50 [2]	IC50 [3]
Cc1n[nH]c(C)c1-c1cc(Cl)c(Nc2ccsc2C(=O)O)c(Cl)c1	680 nM		
Cc1n[nH]c(C)c1-c1cc(C2CC2)c(Nc2ccsc2C(=O)NO)c(C2CC2)c1		300 nM	300 nM
Cc1n[nH]c(C)c1-c1cc(C2CC2)c(Nc2ccsc2C(=O)NC#N)c(C2CC2)c1	270 nM		
